Results on 22 compounds are retold here after ChEMBL document CHEMBL4373729, “Natural dimers of coumarin, chalcones, and resveratrol and the link between structure and pharmacology” (Eur J Med Chem, 2019).

Test [1] has as its system Saccharomyces cerevisiae. Briefly: Inhibition of yeast alpha-glucosidase using p-nitrophenyl-alpha-D-glucopyranoside as substarte preincubated for 0.5 hrs followed by substrate addition measured after 0.5 hrs relative to control. The settings on record: concentration not given here.
The nature of test [2]: Inhibition of yeast alpha-glucosidase using p-nitrophenyl-alpha-D-glucopyranoside as substarte preincubated for 0.5 hrs followed by substrate addition measured after 0.5 hrs. Further details: species or system Saccharomyces cerevisiae.
Test [3] has as its system Plasmodium falciparum. Briefly: Antiplasmodial activity against multidrug-resistant Plasmodium falciparum K1 by [3H]-hypoxanthine incorporation assay. In kind it is functional, organism-based.
The test system of test [4] is KB. Briefly: Cytotoxicity against human KB cells assessed as reduction in cell viability. In kind it is functional, cell-based.
The test system of test [5] is NCI-H187. Put plainly: Cytotoxicity against human NCI-H187 cells assessed as reduction in cell viability. The test is classed as functional, cell-based.
In test [6] the target is T1, Alpha glucosidase (Homo sapiens, UniProt O43451+P10253+P14410+Q2M2H8). Briefly: Inhibition of alpha-glucosidase (unknown origin) using 4-nitrophenyl alpha-D-glucopyranoside as substarte preincubated for 10 mins followed by substrate addition measured after 30 mins. In kind it is protein assay.
Test [7] has as its target Human immunodeficiency virus type 1 reverse transcriptase (Human immunodeficiency virus 1, UniProt Q72547). Put plainly: Inhibition of HIV-1 reverse transcriptase.
Test [8] concerns the target T2, DNA topoisomerase 2-alpha (Homo sapiens, UniProt P11388). Put plainly: Inhibition of human topoisomerase 2 by fluorescence method.
Test [9] has as its target T1, Alpha glucosidase. Put plainly: Inhibition of alpha-glucosidase (unknown origin). In kind it is protein assay.
Test [10] deals with Glucagon-like peptide 1 receptor (Homo sapiens, UniProt P43220). Put plainly: Agonist activity at human GLP1 receptor.
Sequence of Glucagon-like peptide 1 receptor (P43220 whole entry): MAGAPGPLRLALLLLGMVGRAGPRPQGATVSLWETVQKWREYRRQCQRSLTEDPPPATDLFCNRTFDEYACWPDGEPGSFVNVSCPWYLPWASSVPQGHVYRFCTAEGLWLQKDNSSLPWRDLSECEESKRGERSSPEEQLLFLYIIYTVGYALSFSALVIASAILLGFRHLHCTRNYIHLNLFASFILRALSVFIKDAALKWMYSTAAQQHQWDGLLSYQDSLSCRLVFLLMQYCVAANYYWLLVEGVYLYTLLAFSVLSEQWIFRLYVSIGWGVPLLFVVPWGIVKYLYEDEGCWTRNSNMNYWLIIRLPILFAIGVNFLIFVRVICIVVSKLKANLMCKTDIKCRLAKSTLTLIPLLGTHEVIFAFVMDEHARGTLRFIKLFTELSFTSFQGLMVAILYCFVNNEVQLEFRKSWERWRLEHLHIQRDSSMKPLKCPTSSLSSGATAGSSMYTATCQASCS
Test [11] has as its target T3, Cathepsin L2 (Homo sapiens, UniProt O60911).
T3 sequence (O60911 whole entry): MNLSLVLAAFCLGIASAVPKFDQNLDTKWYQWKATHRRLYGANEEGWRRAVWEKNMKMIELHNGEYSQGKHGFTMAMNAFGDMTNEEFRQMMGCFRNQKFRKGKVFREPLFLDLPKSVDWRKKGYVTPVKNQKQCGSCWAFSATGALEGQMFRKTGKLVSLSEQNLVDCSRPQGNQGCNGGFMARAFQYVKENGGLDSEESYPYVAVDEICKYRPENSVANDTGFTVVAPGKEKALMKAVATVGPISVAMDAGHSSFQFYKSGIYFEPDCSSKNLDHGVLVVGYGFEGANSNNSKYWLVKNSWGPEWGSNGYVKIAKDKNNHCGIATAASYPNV
Put plainly: Inhibition of recombinant human cathepsin V using Z-Phe-Arg-7-amido-4-methylcoumarin as substrate by fluorescence assay.

For test [12], the target named is T2, DNA topoisomerase 2-alpha. Briefly: Inhibition of topoisomerase 2 (unknown origin).

≈ marks a conversion by molar mass, not a printed value. Where only a bound is given, the exact number is not on record here.

T2 sequence (P11388 whole entry): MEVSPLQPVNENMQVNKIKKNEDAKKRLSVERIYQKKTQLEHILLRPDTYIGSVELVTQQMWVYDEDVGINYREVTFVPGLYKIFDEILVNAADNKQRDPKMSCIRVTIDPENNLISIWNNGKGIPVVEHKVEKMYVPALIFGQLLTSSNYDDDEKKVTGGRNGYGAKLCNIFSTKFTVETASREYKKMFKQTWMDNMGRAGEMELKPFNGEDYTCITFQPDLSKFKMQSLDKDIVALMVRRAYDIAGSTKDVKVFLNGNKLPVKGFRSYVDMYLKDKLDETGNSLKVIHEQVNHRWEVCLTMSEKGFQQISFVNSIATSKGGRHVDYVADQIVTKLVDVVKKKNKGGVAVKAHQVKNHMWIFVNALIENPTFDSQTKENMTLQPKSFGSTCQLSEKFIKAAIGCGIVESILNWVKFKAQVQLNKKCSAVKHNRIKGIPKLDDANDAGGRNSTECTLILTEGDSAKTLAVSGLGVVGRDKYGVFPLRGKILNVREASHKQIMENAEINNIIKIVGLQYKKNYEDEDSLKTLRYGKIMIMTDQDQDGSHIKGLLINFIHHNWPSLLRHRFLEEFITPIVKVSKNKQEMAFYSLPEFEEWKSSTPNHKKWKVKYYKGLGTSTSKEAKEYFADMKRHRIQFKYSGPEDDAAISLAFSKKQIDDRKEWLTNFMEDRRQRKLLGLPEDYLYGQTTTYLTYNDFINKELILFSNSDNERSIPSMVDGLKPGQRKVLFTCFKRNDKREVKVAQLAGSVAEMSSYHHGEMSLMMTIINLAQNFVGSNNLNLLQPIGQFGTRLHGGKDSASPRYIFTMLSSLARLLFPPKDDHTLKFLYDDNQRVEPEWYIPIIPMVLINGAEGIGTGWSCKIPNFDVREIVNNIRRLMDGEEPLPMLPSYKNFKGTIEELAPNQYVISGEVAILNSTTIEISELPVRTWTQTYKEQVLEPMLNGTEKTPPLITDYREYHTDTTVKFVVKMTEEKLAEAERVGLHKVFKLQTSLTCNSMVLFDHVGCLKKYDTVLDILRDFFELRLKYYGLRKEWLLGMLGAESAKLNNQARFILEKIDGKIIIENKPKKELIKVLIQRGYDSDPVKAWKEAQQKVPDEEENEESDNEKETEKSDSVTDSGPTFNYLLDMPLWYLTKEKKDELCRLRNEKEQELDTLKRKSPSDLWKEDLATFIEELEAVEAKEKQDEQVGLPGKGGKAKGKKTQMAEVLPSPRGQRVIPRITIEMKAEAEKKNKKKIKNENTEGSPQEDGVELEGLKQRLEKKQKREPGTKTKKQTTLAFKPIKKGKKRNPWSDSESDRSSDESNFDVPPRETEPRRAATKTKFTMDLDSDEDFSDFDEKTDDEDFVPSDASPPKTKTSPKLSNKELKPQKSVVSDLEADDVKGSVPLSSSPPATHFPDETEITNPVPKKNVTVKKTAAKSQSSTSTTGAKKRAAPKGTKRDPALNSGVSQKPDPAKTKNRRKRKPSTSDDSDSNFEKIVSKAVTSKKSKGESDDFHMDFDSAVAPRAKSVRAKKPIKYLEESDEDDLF

One may read the inhibition as the share of the control response that was lost under treatment. The low end stands for a weak effect, the high end for a strong effect. In general, IC50 refers to the concentration at which inhibition is half-maximal. In test [1], `Cc1cc(=O)oc2cc(O)c(-c3c(C)c4ccc(O)cc4oc3=O)cc12` had an inhibition above 65%. In [2], this compound showed a concentration for half-maximal inhibition (IC50) of 36.8 µM.

In turn, `COc1cc(OC)c([C@@H]2Oc3c(OC)c(OC)cc(OC)c3[C@@H](/C=C/c3ccccc3)[C@H]2C(=O)c2ccccc2)c(O)c1OC` showed an IC50 in [3] of 3.02 to 4.21 µg/mL (≈ 4.93 to 6.87 µM).

As to `C=CC(C)(C)c1c2c(c(O)c3c1OC(C)(C)C=C3)C=C([C@H]1CC(C)(C)Oc3c1c(O)c1ccc(=O)oc1c3C(C)(C)C=C)CO2`, the IC50 came to 5.95 µg/mL (≈ 9.74 µM) in test [4] and 7.1 µg/mL (≈ 11.6 µM) in [5].

In turn, `COc1cc(OC)c(OC)c2c1C[C@H]1[C@@H](/C=C/c3ccccc3)c3c(OC)cc(OC)c(OC)c3O[C@@]1(c1ccccc1)O2` returned an IC50 in [3] of 3.02 to 4.21 µg/mL (≈ 5.06 to 7.06 µM).

Regarding `COc1cc(OC)c2c(c1OC)O[C@H]1c3c(OC)cc(OC)c(OC)c3O[C@H](c3ccccc3)[C@H]1[C@@H]2/C=C/c1ccccc1` [DEPENDENSIN], in test [3], the IC50 was in the range of 3.02 to 4.21 µg/mL (≈ 5.06 to 7.06 µM).

The compound `O=c1ccc2ccc(Oc3cc4ccc(O)c(-c5c(OC6O[C@H](CO)[C@@H](O)[C@H](O)[C@H]6O)ccc6ccc(=O)oc56)c4oc3=O)cc2o1` (stereo partly specified) came in with an IC50 in [6] of 780 µg/mL (≈ 1210 µM).

Consider `COc1cc(OC)c2c(c1OC)C=C(C(=O)c1ccccc1)C1(C=C(c3ccccc3)Oc3c(OC)c(OC)cc(OC)c31)O2` (stereo unspecified), for which the IC50 in test [3] is 3.02 to 4.21 µg/mL (≈ 4.96 to 6.92 µM).

Regarding `Oc1ccc(/C=C/c2cc(O)c3c(-c4cc(O)cc(O)c4)c(-c4ccc(O)cc4)oc3c2)cc1`, 8 µM corresponded to half-maximal inhibition in [7] (IC50).

`O=C(/C=C/c1ccc(O)cc1)c1cc2c(cc1O)O[C@H](c1ccc(O)cc1)[C@H]2C(=O)c1ccc(O)cc1O` showed an IC50 in [8] of 14.5 µM.

As for `C=C(C)C(COc1c2occc2cc2ccc(=O)oc12)OC(C)(C)[C@H](O)COc1c2ccoc2cc2oc(=O)ccc12` (stereo partly specified), in test [9], the half-maximal inhibitory concentration (IC50) lay in the range of 8.8 to 9.8 µM.

Consider `C=C(C)C(COc1c2occc2c(OC)c2ccc(=O)oc12)OC(C)(C)[C@H](O)COc1c2ccoc2cc2oc(=O)ccc12` (stereo partly specified), for which the IC50 in test [9] lay in the range of 8.8 to 9.8 µM.

As a reminder, the EC50 is the concentration needed to bring the measured effect to its halfway point. A high value points to lower potency in that assay. The compound `COc1cc([C@H]2[C@](NC(=O)c3ccc(NC(=O)C(C)C)cc3)(C(=O)O)[C@@H](c3ccc(OC(=O)c4cccs4)c(OC)c3)[C@]2(NC(=O)c2ccc(NC(=O)C(C)C)cc2)C(=O)O)ccc1OC(=O)c1cccs1` yielded an EC50 in test [10] of 203 nM.

For `O=C(c1ccc(O)cc1O)[C@@H]1[C@H](c2ccc(O)cc2)c2cc(O)c(O)cc2[C@H](O)[C@@H]1C(=O)c1ccc(O)cc1`, the IC50 in test [11] stood at 1400 nM.

As for `O=C1c2ccc(O)cc2OC2c3cc(O)c(O)cc3[C@@H](c3ccc(O)cc3)[C@@H](C(=O)c3ccc(O)cc3O)C12` (stereo partly specified), the IC50 in test [11] amounted to 700 nM.

In the case of `O=C(c1ccc(O)cc1O)[C@H]1[C@H](c2ccc(O)cc2)c2cc(O)c(O)cc2[C@H](O)[C@]1(O)C(=O)c1ccc(O)cc1`, in test [11], the IC50 was found to be 420 nM.

In turn, `Cc1c(-c2c(O)ccc3c(C)cc(=O)oc23)c(=O)oc2cc(O)ccc12` gave an inhibition in test [1] above 65%. This compound also came in with an IC50 in test [2] of 16.3 µM.

As for `C=C(C)C(COc1c2ccoc2cc2oc(=O)ccc12)OC(C)(C)C(O)COc1c2occc2c(OC)c2ccc(=O)oc12` (stereo unspecified), in [9], the IC50 is 8.8 to 9.8 µM.

Turning to `COc1cc([C@H]2[C@](NC(=O)c3ccc(NC(=O)OC(C)(C)C)cc3)(C(=O)O)[C@@H](c3ccc(OC(=O)c4cccs4)c(OC)c3)[C@]2(NC(=O)c2ccc(NC(=O)OC(C)(C)C)cc2)C(=O)O)ccc1OC(=O)c1cccs1`, the EC50 in test [10] was found to be 847 nM.

In [6], `O=c1ccc2ccc(O)c(-c3c(OC4O[C@H](CO)[C@@H](O)[C@H](O)[C@H]4O)ccc4ccc(=O)oc34)c2o1` (stereo partly specified) displayed an IC50 of 760 µg/mL (≈ 1570 µM).

`COc1cc(OC)c([C@@H]2Oc3c(OC)c(OC)cc(OC)c3[C@H](/C=C/c3ccccc3)[C@@H]2C(=O)c2ccccc2)c(O)c1OC` gave an IC50 in [3] of 3.02 to 4.21 µg/mL (≈ 4.93 to 6.87 µM).

Take `O=C(/C=C/c1ccc(O)cc1)c1ccc2c(c1O)[C@H](C(=O)c1ccc(O)cc1O)[C@@H](c1ccc(O)cc1)O2`: the values for the IC50 in test [8] and in [12] were 15.3 µM and 2100 nM, respectively.

In turn, `COc1cc2cc(Oc3cc(O[C@@H]4O[C@H](CO)[C@@H](O)[C@H](O)[C@H]4O[C@@H]4O[C@H](CO)[C@@H](O)[C@H](O)[C@H]4O)c4ccc(=O)oc4c3)c(=O)oc2cc1O` displayed an IC50 in [6] of 231 µg/mL (≈ 334 µM).
